Reference: patent publication US20260116845A1, “LIPIDS AND COMPOSITIONS THEREOF” (Kernal Biologics, Inc., priority 2023, published 2026)

Assays:
Liver = assay: Ex-vivo luminescence signal from liver after IV Fluc mRNA LNPs in CD1 mice (IVIS); details: tail vein 1.0 mg/kg Day 0 and Day 2, imaging 18 hours after second dose, Table 4
B16F10 Cell Line = assay: Transfection of B16F10 Cell Line with FLuc mRNA LNPs (ONE-Glo EX luciferase signal); type: cell-based; details: 200 ng Fluc mRNA-LNP, 24 hours; Table 4
Procedure: (§1) mRNA encapsulated lipid nanoparticles (mRNA LNPs) were formulated using microfluidic mixing with a PNI Ignite instrument. Briefly, lipids (ionizable: structural: helper: PEG) were dissolved in ethanol and mixed with and aqueous solution of mRNA. These mRNA-loaded dispersions were then neutralized via a buffer exchange with a pre-determined buffer overnight. Afterwards, formed LNPs were concentrated with Amicon filter centrifugation, filtered, concentration of mRNA determined through a ribogreen assay, and frozen at −80° C. until use.
(§2) Cell lines were grown to confluence in T75 flasks using complete media of DMEM-F12 for AML12 and DMEM for both B16F10 and MC38.K. Cells were plated in a white 96 flat-well plate (AML12=20,000 cells/well, B16F10 and MC38.K=5,000 cells/well) with their respected media. Lipid nanoparticles were first diluted to 50 μg/ml using Opti-MEM and pre-incubated with mouse serum for 30 minutes to give an LNP concentration of 8 μg/ml. Cell media was replaced with Opti-MEM and LNPs were added to cells (200 ng of mRNA-LNP), placed back in the incubator, and allowed to transfect for 24 hours. Afterwards, 100 μl of Promega's ONE-Glo™ EX Luciferase Assay System or Promega's CellTiter-Glo® Luminescent Cell Viability Assay was added and mixed in their respective wells, followed by recording luminescence signals on a Thermo Scientific Varioskan LUX multimode microplate reader. The results are shown in FIG. 1, FIG. 2, FIG. 3, FIG. 4, FIG. 5, FIG. 6, FIG. 10, FIG. 11, and FIG. 21.

AML12 Cell Line = assay: Transfection of AML12 Cell Line with FLuc mRNA LNPs (ONE-Glo EX luciferase signal); type: cell-based; details: 200 ng Fluc mRNA-LNP, 24 hours; Table 4
Procedure: as §1, §2

MC38.K Cell Line = assay: Transfection of MC38.K Cell Line with FLuc mRNA LNPs (ONE-Glo EX luciferase signal); type: cell-based; details: 200 ng Fluc mRNA-LNP, 24 hours; Table 4
Procedure: as §1, §2

Row | SMILES | Total Liver Tissue Luciferin Signal (Photons/s) Ex-vivo - CD1 (Liver) [Photons/s] | Total Luciferin Signal (RLU) In Vitro - B16F10 (B16F10 Cell Line) [RLU] | Total Luciferin Signal (RLU) In Vitro - AML12 (AML12 Cell Line) [RLU] | Total Luciferin Signal (RLU) In Vitro - MC38.K (MC38.K Cell Line) [RLU] | Total Liver Tissue Luciferin Signal (Photons/s) In Vitro - CD1 (Liver) [Photons/s]
1 | CCCCCCCCC(CCCCCCCC)OC(=O)CCCCCCCN(CCCCCCCOC(=O)CCCCCCCCC(C)C)CCOC(=O)CCCN(C)C [Compound 12] | 4.15E+07 | 2.79E+06 | 7.43E+05 | 4.07E+06 | 
2 | CCCCCCCCC(CCCCCCCCF)OC(=O)CCCCCCCN(CCO)CCCCCC(=O)OC(CCCCCCCC)CCCCCCCC (stereo not shown) [Compound 35] | 1.51E+10 | 4.43E+05 | 1.57E+05 | 4.52E+05 | 
3 | CC(C)CCCCCCCCOC(=O)CCCCCCCN(CCO)CCCCCCCC(=O)OCCCCCCCCC(C)C [Compound 45] | 4.18E+08 | 1.98E+06 | 3.98E+05 | 1.09E+06 | 
4 | CCCCCCCCC(CCCCCCCC)OC(=O)CCCCCCCN(CCO)CCCCCCC(C)C(=O)OCCCCCCCCC(C)C (stereo not shown) [Compound 59, 9-methyldecyl 8-((8-(heptadecan-9-yloxy)-8-oxooctyl)(2-hydroxyethyl)amino)-2-methyloctanoate] | 5.55E+09 | 6.17E+05 | 8.24E+05 | 8.40E+06 | 
5 | CCCCCCCCC(CCCCCCCF)OC(=O)CCCCCCCN(CCO)CCCCCC(=O)OC(CCCCCCCC)CCCCCC(C)C (stereo not shown) [Compound 55, 1-fluorohexadecan-8-yl 8-((2-hydroxyethyl)(6-((2-methylhexadecan-8-yl)oxy)-6-oxohexyl)amino)octanoate] | 1.93E+10 | 1.10E+06 | 4.19E+05 | 1.80E+06 | 
6 | CCCCCCCCC(CCCCCCCCF)OC(=O)CCCCCN(CCCCO)CCCCC(C)C(=O)OCCCCCCCCCCC(C)C (stereo not shown) [Compound 64, 11-methyldodecyl 6-((6-((1-fluoroheptadecan-9-yl)oxy)-6-oxohexyl)(4-hydroxybutyl)amino)-2-methylhexanoate] | 4.39E+09 | 1.10E+06 | 1.02E+06 | 2.41E+07 | 
7 | CCCCCCCCCOC(=O)CCCCCCCN(CCO)CCCCCCC(C)C(=O)OC(CCCCCCCC)CCCCCCCC (stereo not shown) [Compound 36] | 6.41E+08 | 2.85E+05 | 2.18E+05 | 2.32E+05 | 
8 | CCCCCCCCC(CCCCCCCCF)OC(=O)CCCCCN(CCO)CCCCCC(=O)OCCCCCCCCCCC(C)C (stereo not shown) [Compound 70, 1-fluoroheptadecan-9-yl 6-((2-hydroxyethyl)(6-((11-methyldodecyl)oxy)-6-oxohexyl)amino)hexanoate] | 4.87E+09 | 7.68E+05 | 7.41E+05 | 5.15E+06 | 
9 | CCCCCCCCC(CCCCCCCC)OC(=O)CCCCCCCN(CCCCCCCC(=O)OCCCCCCCCC(C)C)CCOC(=O)CCCN(C)C [Compound 3] | 8.57E+07 | 4.58E+06 | 3.82E+06 | 2.99E+06 | 
10 | CCCCCCCCCCCOC(=O)CCCCCN(CCO)CCCCCCCC(=O)OC(CCCCCCCC)CCCCCCCCF (stereo not shown) [Compound 33] | 2.93E+09 | 4.80E+05 | 1.38E+05 | 1.07E+06 | 
11 | CCCCCCCCCOC(=O)C(C)CCCCCCN(CCCCO)CCCCCCCC(=O)OC(CCCCCCCC)CCCCCCCC (stereo not shown) [Compound 62, nonyl 8-((8-(heptadecan-9-yloxy)-8-oxooctyl)(4-hydroxybutyl)amino)-2-methyloctanoate] | 1.03E+10 | 2.73E+06 | 2.33E+06 | 3.47E+07 | 
12 | CCCCCCCCCOC(=O)CCCCCCCN(CCCO)CCCCCCCC(=O)OC(CCCCCCCC)CCCCCCCCF (stereo not shown) [Compound 30] | 1.53E+10 | 1.16E+05 | 8.06E+05 | 4.65E+05 | 
13 | CCCCCCCCCOC(=O)CCCCCCCN(CCCCO)CCCCCCCC(=O)OCC(CCCCCC)CCCCCCCCF (stereo not shown) [Compound 71, 10-fluoro-2-hexyldecyl 8-((4-hydroxybutyl)(8-(nonyloxy)-8-oxooctyl)amino)octanoate] | 1.75E+09 | 1.67E+06 | 4.77E+06 | 1.57E+07 | 
14 | CCCCCCCCC(CCCCCCCF)OC(=O)CCCCCCCN(CCO)CCCCCC(=O)OCCCCCCC(C)C (stereo not shown) [Compound 26] | 5.54E+09 | 1.73E+05 | 1.95E+05 | 2.33E+05 | 
15 | CCCCCCCCC(CCCCCCCCF)C(=O)OCCCCCCCN(CCO)CCCCCCCOC(=O)CCCCCCCCC(C)C (stereo not shown) [Compound 60, 7-((7-((10-fluoro-2-octyldecanoyl)oxy)heptyl)(2-hydroxyethyl)amino)heptyl 10-methylundecanoate] | 3.00E+09 | 3.17E+05 | 8.00E+05 | 5.21E+06 | 
16 | CCCCCCCCC(CCCCCCCC)C(=O)OCCCCCCCN(CCCCCC(=O)OCCCCCCCCC(C)C)CCOC(=O)CCCN(C)C [Compound 9] | 4.41E+07 | 3.27E+06 | 6.57E+05 | 1.23E+06 | 
17 | CCCCCCCCC(CCCCCCCC)C(=O)OCCCCCCCN(CCO)CCCCCCCC(=O)OCCCCCCCCC(C)C [Compound 4] | 1.06E+09 | 2.16E+06 | 1.72E+06 | 3.54E+06 | 
18 | CCCCCCCCC(CCCCCCCC)OC(=O)CCCCCN(CCO)CCCCCC(=O)OCCCCCCCCCCC(C)C [Compound 16] | 5.11E+09 | 7.67E+06 | 1.67E+06 | 2.39E+06 | 
19 | CCCCCCCCC(CCCCCCCC)OC(=O)CCCCCCCN(CCO)CCCCCCCC(=O)OCCCCCCCCC(C)C [Compound 2] | 6.20E+09 | 5.94E+06 | 4.76E+06 | 4.24E+06 | 
20 | [2H]C([2H])(O)C([2H])([2H])N(CCCCCCCC(=O)OCCCCCCCCC)CCCCCCCC(=O)OC(CCCCCCCC)CCCCCCCC [Compound 39, heptadecan-9-yl 8-((2-hydroxyethyl-1,1,2,2-d4)(8-(nonyloxy)-8-oxooctyl)amino)octanoate] |  | 3.58E+05 | 6.92E+05 | 8.82E+05 | 7.86E+06
21 | CCCCCCCCC(CCCCCCCCF)OC(=O)CCCCCCCN(CCO)CCCCCCC(C)C(=O)OCCCCCCCCC(C)C (stereo not shown) [Compound 66, 9-methyldecyl 8-((8-((1-fluoroheptadecan-9-yl)oxy)-8-oxooctyl)(2-hydroxyethyl)amino)-2-methyloctanoate] | 9.44E+09 | 1.12E+06 | 1.16E+06 | 5.75E+06 | 
22 | CCCCCCCCCOC(=O)CCCCCCCN(CCCCCCCC(=O)OC(CCCCCCCC)CCCCCCCCF)CCN(C)C (stereo not shown) [Compound 56, 1-fluoroheptadecan-9-yl 8-((2-(dimethylamino)ethyl)(8-(nonyloxy)-8-oxooctyl)amino)octanoate] | 1.77E+09 | 1.54E+07 | 6.63E+06 | 2.52E+07 | 
